Reference: publication PMC4452589, “An evaluation of the brain distribution of [^11C]GSK1034702, a muscarinic-1 (M1) positive allosteric modulator in the living human brain using positron emission tomography” (EJNMMI Research, 2014)
Read-outs that look alike come from different tables or passages of the source.

Assays:
[1] = [11C]GSK1034702 PET brain distribution and kinetics in healthy male humans; format: in vivo; conditions: human
Procedure: An open-label PET study (GSK study number 110771) was conducted to assess the transport of [^11C]GSK1034702 across the BBB and its distribution in the living human brain. Four healthy males aged between 35 and 55 years old, with body mass index (BMI) between 19.0 and 29.0 kg/m^2, and the absence of past or present neurological, medical or psychiatric illnesses and concomitant medications were enrolled. Clinical status was assessed by history, physical examination, routine blood tests, urine toxicology and electrocardiogram. All subjects provided written informed consent. The study was approved by the Edinburgh Independent Ethics Committee for Medical Research and permission to administer radioisotopes was obtained from the Administration of Radioactive Substances Advisory Committee of the UK. Subjects were recruited by and monitored by the Hammersmith Medicines Research (HMR) clinic. All scanning procedures were performed at the GlaxoSmithKline Clinical Imaging Center, Hammersmith Hospital, London.
Each subject underwent a single study day, during which PET imaging was performed. T1-weighted structural MRI scan was performed for all subjects to provide neuroanatomical information. A tracer dose of [^11C]GSK1034702 (mass <50 μg) was administered as an IV bolus immediately before each PET scan. During the scanning day, each subject received a baseline [^11C]GSK1034702 scan, followed by a single 5-mg oral dose (p.o.) of […] and a subsequent [^11C]GSK1034702 scan approximately 4 h post-dose. Subjects returned to the clinic for a follow-up visit 7 to 14 days following the oral dose of GSK1034702.
Dynamic PET data were acquired using a Siemens Biograph 6 Truepoint with TrueV PET-CT (Siemens Healthcare, Malvern, PA, USA) in three-dimensional (3D) mode. A computed tomography (CT) scan was acquired for attenuation correction of PET data prior to administration of the radiotracer. A cannula was inserted under local anaesthesia into the radial artery, contralateral to the tracer injection site, and used to collect arterial blood samples to estimate the time course of radioactivity and metabolism of GSK1034702. The radiotracer was administered as an IV bolus over 20 s, and dynamic PET data were acquired for 90 min.
Arterial blood radioactivity was measured continuously for the first 15 min after [^11C]GSK1034702 injection, using a continuous sampling system (ABSS Allogg, Mariefred, Sweden). In addition, 12 serial discrete blood samples were obtained (at 5, 10, 15, 20, 25, 30, 40, 50, 60, 70, 80 and 90 min post injection), to determine whole blood and plasma activity. Seven samples (at 5, 10, 20, 30, 50, 70 and 90 min) were further processed by HPLC to measure the fraction of plasma activity representing unmetabolised GSK1034702. For all human studies, the non-protein-bound fraction of [^11C]GSK1034702 in arterial plasma (fP) was assessed by ultrafiltration for the blood sample taken at the beginning of the scan.
Emission PET data were binned into 26 frames (durations: 8 × 15 s, 3 × 60 s, 5 × 2 min, […], 5 × 10 min) and reconstructed using Fourier re-binning and a two-dimensional (2D) filtered back projection algorithm with a ramp filter. Image data were then smoothed with a Gaussian filter (5 mm FWHM). The PET reconstruction process included corrections for scatter, randoms and attenuation. Dynamic PET data were corrected for motion via frame-to-frame image registration and aligned with the structural T1 MRI image using SPM5 (Wellcome Trust Centre for Neuroimaging, http://www.fil.ion.ucl.ac.uk/spm) with a mutual information cost function.
The CIC Neuroanatomical Atlas was non-linearly deformed into the individual's space to obtain a personalised anatomical parcellation of ROIs. These ROIs were applied to the dynamic emission data, and regional TACs were obtained for the whole brain, frontal cortex, occipital cortex, striatum, thalamus, hippocampus and cerebellum. […]

[2] = plasma protein binding by equilibrium dialysis, rat; format: in vitro ADME; conditions: equilibrium dialysis 5 h
Procedure: (§1) The in vitro brain and plasma protein binding of GSK1034702 across a range of species was determined using equilibrium dialysis as described previously.

[3] = plasma protein binding by equilibrium dialysis, dog; format: in vitro ADME; conditions: equilibrium dialysis 5 h
Procedure: as §1

[4] = brain tissue binding by equilibrium dialysis, mouse; format: in vitro ADME; conditions: equilibrium dialysis 5 h
Procedure: as §1

[5] = brain tissue binding by equilibrium dialysis, monkey; format: in vitro ADME; conditions: equilibrium dialysis 5 h
Procedure: as §1

[6] = fP/fND ratio from equilibrium dialysis (expected VT for passive diffusion), primate; format: in vitro ADME; conditions: primate brain; monkey fP and monkey brain fND
Text: If a value for fND can be obtained, then the assumption of passive diffusion across the BBB can be tested. Under the conditions of passive diffusion, at equilibrium, CFT = CFP, and Eq. 3 is simplified to:4 VT=fP/fND
A VT measurement from a PET biodistribution study can be compared to the fP/fND ratio, and passive diffusion can be assumed if the two are similar. Equilibrium dialysis provides a practical method for measurements of brain tissue fND (and also fP if necessary).
Regional TACs with an arterial plasma metabolite- corrected input function were fitted using compartmental analyses, and estimates of the delivery rate constant for transfer from arterial plasma to tissue (K1) and VT were obtained. VT estimates derived were compared to in vitro estimates derived from equilibrium dialysis to investigate the BBB transport process.
as §1

[7] = parameters: method as in PMID 22932339; conditions: healthy smokers, nicotine abstinence model of cognitive dysfunction; cited from earlier work
[8] = male, whole brain, intravenous, two-tissue compartmental model, read-out: whole brain VT
[9] = brain tissue, read-out: f ND (brain-free fraction)

## Cc1cc(F)c2[nH]c(=O)n(C3CCN(C4CCOCC4)CC3)c2c1 [GSK1034702]
[1]; male, cortex, intravenous, read-out: VT measured in the human cortex
  Kp: 4.9
[1]; [8]
  Kp: 4.9
[2]; Rat (CD), read-out: f P (plasma-free fraction)
  fraction unbound at 5 h, 1 μg/mL: 0.53
[2]; Rat (CD, Sprague Dawley), mean ± SD, n = 6, read-out: Plasma protein binding (converted)
  fraction unbound at 5 h, 1 μg/mL: 0.528
[2]; Rat (LH), read-out: f P (plasma-free fraction)
  fraction unbound at 5 h, 1 μg/mL: 0.55
[2]; Rat (LH, Lister hooded), mean ± SD, n = 6, read-out: Plasma protein binding (converted)
  fraction unbound at 5 h, 1 μg/mL: 0.545
[3]; mean ± SD, n = 6, read-out: Plasma protein binding (converted)
  fraction unbound at 5 h, 1 μg/mL: 0.555
[3]; read-out: f P (plasma-free fraction)
  fraction unbound at 5 h, 1 μg/mL: 0.56
[4]; [9]
  fraction unbound at 5 h, 1 μg/mL: 0.13
[4]; 1 μg/mL, mean ± SD, n = 6
  Brain tissue binding: 86.7 (±0.6) %
[5]; [9]
  fraction unbound at 5 h, 1 μg/mL: 0.17
[5]; 1 μg/mL, mean ± SD, n = 6
  Brain tissue binding: 83.2 (±1.1) %
[6]
  fP/fND ratio (expected VT if passive diffusion): 3.4
[7]
  effect on episodic memory: improved episodic memory

## [11CH3]c1cc(F)c2[nH]c(=O)n(C3CCN(C4CCOCC4)CC3)c2c1 [[^11C]GSK1034702]
[1]; Cerebellum, Subject 1 Scan 1 (baseline)
  K 1: 0.23 mL.cm^−3.min^−1
[1]; Cerebellum, Subject 2 Scan 1 (baseline)
  K 1: 0.19 mL.cm^−3.min^−1
[1]; Cerebellum, Subject 2 Scan 2 (post dose, 5 mg oral)
  K 1: 0.15 mL.cm^−3.min^−1
[1]; Cerebellum, Subject 4 Scan 1 (baseline)
  K 1: 0.19 mL.cm^−3.min^−1
[1]; Cerebellum, Subject 4 Scan 2 (post dose, 5 mg oral)
  K 1: 0.19 mL.cm^−3.min^−1
[1]; Cortex, Subject 1 Scan 1 (baseline)
  K 1: 0.19 mL.cm^−3.min^−1
[1]; Cortex, Subject 2 Scan 1 (baseline)
  K 1: 0.16 mL.cm^−3.min^−1
[1]; Cortex, Subject 2 Scan 2 (post dose, 5 mg oral)
  K 1: 0.12 mL.cm^−3.min^−1
[1]; Cortex, Subject 4 Scan 1 (baseline)
  K 1: 0.16 mL.cm^−3.min^−1
[1]; Cortex, Subject 4 Scan 2 (post dose, 5 mg oral)
  K 1: 0.17 mL.cm^−3.min^−1
[1]; MTL, Subject 1 Scan 1 (baseline)
  K 1: 0.33 mL.cm^−3.min^−1
[1]; MTL, Subject 2 Scan 1 (baseline)
  K 1: 0.19 mL.cm^−3.min^−1
[1]; MTL, Subject 2 Scan 2 (post dose, 5 mg oral)
  K 1: 0.16 mL.cm^−3.min^−1
[1]; MTL, Subject 4 Scan 1 (baseline)
  K 1: 0.24 mL.cm^−3.min^−1
[1]; MTL, Subject 4 Scan 2 (post dose, 5 mg oral)
  K 1: 0.25 mL.cm^−3.min^−1
[1]; Striatum, Subject 1 Scan 1 (baseline)
  K 1: 0.20 mL.cm^−3.min^−1
[1]; Striatum, Subject 2 Scan 1 (baseline)
  K 1: 0.16 mL.cm^−3.min^−1
[1]; Striatum, Subject 2 Scan 2 (post dose, 5 mg oral)
  K 1: 0.13 mL.cm^−3.min^−1
[1]; Striatum, Subject 4 Scan 1 (baseline)
  K 1: 0.18 mL.cm^−3.min^−1
[1]; Striatum, Subject 4 Scan 2 (post dose, 5 mg oral)
  K 1: 0.18 mL.cm^−3.min^−1
[1]; Thalamus, Subject 1 Scan 1 (baseline)
  K 1: 0.29 mL.cm^−3.min^−1
[1]; Thalamus, Subject 2 Scan 1 (baseline)
  K 1: 0.19 mL.cm^−3.min^−1
[1]; Thalamus, Subject 2 Scan 2 (post dose, 5 mg oral)
  K 1: 0.15 mL.cm^−3.min^−1
[1]; Thalamus, Subject 4 Scan 1 (baseline)
  K 1: 0.20 mL.cm^−3.min^−1
[1]; Thalamus, Subject 4 Scan 2 (post dose, 5 mg oral)
  K 1: 0.20 mL.cm^−3.min^−1
[1]; White matter, Subject 1 Scan 1 (baseline)
  K 1: 0.13 mL.cm^−3.min^−1
[1]; White matter, Subject 2 Scan 1 (baseline)
  K 1: 0.10 mL.cm^−3.min^−1
[1]; White matter, Subject 2 Scan 2 (post dose, 5 mg oral)
  K 1: 0.08 mL.cm^−3.min^−1
[1]; White matter, Subject 4 Scan 1 (baseline)
  K 1: 0.11 mL.cm^−3.min^−1
[1]; White matter, Subject 4 Scan 2 (post dose, 5 mg oral)
  K 1: 0.11 mL.cm^−3.min^−1
[1]; both subjects with pre- and post-dose data
  change in MTL VT following oral dose of 5 mg GSK1034702: small (but non-significant) reduction
[1]; brain cortex, intravenous, Cortex, Subject 1 Scan 1 (baseline), read-out: V T
  Kp: 5.37
[1]; brain cortex, intravenous, Cortex, Subject 2 Scan 1 (baseline), read-out: V T
  Kp: 5
[1]; brain cortex, intravenous, Cortex, Subject 4 Scan 1 (baseline), read-out: V T
  Kp: 5.57
[1]; brain cortex, po, Cortex, Subject 2 Scan 2 (post dose, 5 mg oral), read-out: V T
  Kp: 4.03
[1]; brain cortex, po, Cortex, Subject 4 Scan 2 (post dose, 5 mg oral), read-out: V T
  Kp: 4.81
[1]; brain striatum, intravenous, Striatum, Subject 1 Scan 1 (baseline), read-out: V T
  Kp: 5.59
[1]; brain striatum, intravenous, Striatum, Subject 2 Scan 1 (baseline), read-out: V T
  Kp: 5.05
[1]; brain striatum, intravenous, Striatum, Subject 4 Scan 1 (baseline), read-out: V T
  Kp: 5.83
[1]; brain striatum, po, Striatum, Subject 2 Scan 2 (post dose, 5 mg oral), read-out: V T
  Kp: 5.29
[1]; brain striatum, po, Striatum, Subject 4 Scan 2 (post dose, 5 mg oral), read-out: V T
  Kp: 4.93
[1]; brain white matter, intravenous, White matter, Subject 4 Scan 1 (baseline), read-out: V T
  Kp: 5.04
[1]; cerebellum, intravenous, Cerebellum, Subject 1 Scan 1 (baseline), read-out: V T
  Kp: 5.33
[1]; cerebellum, intravenous, Cerebellum, Subject 2 Scan 1 (baseline), read-out: V T
  Kp: 4.75
[1]; cerebellum, intravenous, Cerebellum, Subject 4 Scan 1 (baseline), read-out: V T
  Kp: 5.17
[1]; cerebellum, po, Cerebellum, Subject 2 Scan 2 (post dose, 5 mg oral), read-out: V T
  Kp: 3.69
[1]; cerebellum, po, Cerebellum, Subject 4 Scan 2 (post dose, 5 mg oral), read-out: V T
  Kp: 4.56
[1]; medial temporal lobe (MTL), intravenous, MTL, Subject 1 Scan 1 (baseline), read-out: V T
  Kp: 7.81
[1]; medial temporal lobe (MTL), intravenous, MTL, Subject 2 Scan 1 (baseline), read-out: V T
  Kp: 13.3
[1]; medial temporal lobe (MTL), intravenous, MTL, Subject 4 Scan 1 (baseline), read-out: V T
  Kp: 7.11
[1]; medial temporal lobe (MTL), po, MTL, Subject 2 Scan 2 (post dose, 5 mg oral), read-out: V T
  Kp: 8.3
[1]; medial temporal lobe (MTL), po, MTL, Subject 4 Scan 2 (post dose, 5 mg oral), read-out: V T
  Kp: 6.91
[1]; post-dose versus baseline scan
  change in K1 following oral dose of 5 mg GSK1034702: no significant change
  change in VT following oral dose of 5 mg GSK1034702: no significant change
[1]; thalamus, intravenous, Thalamus, Subject 1 Scan 1 (baseline), read-out: V T
  Kp: 6.29
[1]; thalamus, intravenous, Thalamus, Subject 2 Scan 1 (baseline), read-out: V T
  Kp: 5.44
[1]; thalamus, intravenous, Thalamus, Subject 4 Scan 1 (baseline), read-out: V T
  Kp: 5.74
[1]; thalamus, po, Thalamus, Subject 2 Scan 2 (post dose, 5 mg oral), read-out: V T
  Kp: 4.39
[1]; thalamus, po, Thalamus, Subject 4 Scan 2 (post dose, 5 mg oral), read-out: V T
  Kp: 5.11
[1]; white matter, intravenous, White matter, Subject 1 Scan 1 (baseline), read-out: V T
  Kp: 4.63
[1]; white matter, intravenous, White matter, Subject 2 Scan 1 (baseline), read-out: V T
  Kp: 4.38
[1]; white matter, po, White matter, Subject 2 Scan 2 (post dose, 5 mg oral), read-out: V T
  Kp: 4.01
[1]; white matter, po, White matter, Subject 4 Scan 2 (post dose, 5 mg oral), read-out: V T
  Kp: 4.49
[1]; male, medial temporal lobe (MTL), intravenous, range over scans, read-out: VT in the MTL
  Kp: 7 to 13
[1]; male, white matter, intravenous, range over scans, read-out: VT in the white matter
  Kp: 4 to 5
[1]; [8]
  Kp: 4.9
